Here are results for two compounds from patent US11554138B2, “Bismuth(III) complexes as adjuvants in the treatment of cancer using platinum-based chemotherapy” (THE UNIVERSITY OF HONG KONG, priority 2015, dated 2023).

Data set [1] deals with HK-2 (human kidney proximal tubular cell). Kind of data set: XTT cell proliferation assay, protection against cisplatin cytotoxicity, HK-2. Format: cell-based.
Procedure: HK-2 cells treated with culture medium served as a control. The respective survival rate was measured by cell proliferation kit XTT. All data are in triplicates.
(§1) To evaluate the in vitro protection effect of test bismuth(III) complexes against cisplatin stress, two nontumorigenic normal human cell lines, HK-2 (human kidney proximal tubular cell) and MIHA (human hepatocyte cell) are incorporated herein for cell proliferation kit II XTT assay.
(§2) The XTT assay was carried out according to the manufacturer's instruction (Roche Diagnostics, USA). Typically, 1-2×10^4 cells per well were grown in flat-bottom 96-well plates at 37° C. for an overnight under a humidified atmosphere of 5% CO2. Cells pellets were washed with PBS and treated with bismuth(III) complexes at various concentrations (1-100 μM) for 2 hours prior to the exposure to cisplatin (10 μM and 100 μM for HK-2 and MIHA cell line, respectively) for 2 days. Cells grown under culture medium alone were used as a negative control. After a fixed incubation time, 50 μl of the XTT labeling mixture was added to each well and the cells were incubated for 2 hours. The formation of formazan dyes, produced only by metabolic active cells, was detected spectrophotometrically at 490 nm.
Data set [2] relates to MIHA (human hepatocyte cell). Kind of data set: XTT cell proliferation assay, protection against cisplatin cytotoxicity, MIHA. Format: cell-based. For orientation: Tetrazolium dyes change colour on reduction, which living cells bring about.
Procedure: MIHA cells treated with culture medium served as a control. The respective survival rate was measured by cell proliferation kit XTT. All data are in triplicates.
as §1, §2
A further data set relates to testicular cancer. The note with it: cited from earlier work.
The next data set relates to female BALB/c mice. Kind of data set: Survival of cisplatin-treated mice (cisplatin induced nephrotoxicity). The note with it: 50 mg/kg orally Day -2, -1, 0, 2, 4; cisplatin 30 mg/kg i.p. Day 0; n=8. Format: in vivo. As to the method: FIG. 5 Provides survival curves of cisplatin-treated mice with pretreatment of Bi-L1, Bi-L12 and BicitZ, respectively, showing the protective role of bimusth(III) complexes on cisplatin induced nephrotoxicity. All bismuth complexes (50 mg/kg) were administered orally on Day −2, Day −1, Day 0, Day 2 and Day 4. Cisplatin (30 mg/kg) was I.P. injected on Day 0. […] (Log-rank (Mantel-Cox) test, ***P=0.0004)

The conditions of data set [3]: highly dependent on pH and ionic strength.
Data set [4] deals with SKNLP neuroblastoma cells. Kind of data set: Cisplatin anti-tumor activity in SKNLP neuroblastoma tumor-bearing mice.
Procedure: 0.2 Million SKNLP neuroblastoma cells transfected with luminescent plasmid were inoculated into the adrenal gland of SCID beige mice. […] Cisplatin (7.5 mg/kg) was i.p. injected at Day 0, Day 7 and Day 14. Tumor growth was monitored by luminescent of the transfected tumor cells.
SKNLP neuroblastoma cells (˜2×10^5 cells) were transfected with luminescent plasmid were inoculated into the adrenal gland of BALB/c nude mice. […] Cisplatin (7.5 mg/kg) was i.p. injected on Day 0, and Day 7. Tumor growth was monitored by luminescent of the transfected tumor cells.
To evaluate whether Bi(III) complexes affect cisplatin's in vivo anti-tumor activity, SKNLP neuroblastoma cells transfected with luminescent plasmid were implanted into mice.

In the case of `N.N.[Cl][Pt][Cl]` [cisplatin, cis-[PtCl2(NH3)2], reference compound], the “cells survived after exposure to cisplatin only” value in data set [1] (cisplatin 10 μM, 2 days) is given as “Less than 40%”; in data set [2] (cisplatin 100 μM, 2 days), “Less than 40%”. Moreover, the overall cure rate result with testicular cancer is “over 90%”.
On to “bismuth(III) zinc(II) citrate complex [BicitZ]”, for which the “increase of cell viability when co-treated with cisplatin” value is 16.7% in data set [1] (bismuth(III) complex 1-100 μM 2 hours prior to cisplatin 10 μM for 2 days, XTT) and 28.5% in data set [2] (bismuth(III) complex 1-100 μM 2 hours prior to cisplatin 100 μM for 2 days, XTT). Also, the “survival rate of cisplatin-treated mice (Kaplan-Meier)” value in the data set with female BALB/c mice is “higher survival rate”. In addition, in data set [3], the “solubility of the complex in water” value is listed as “over 100 mM”. Besides, the “effect on cisplatin's anti-cancer activity in tumor engrafted mice” value in data set [4] (SCID beige mice, oral 50 mg/Kg Day -1, 0 and every two days, cisplatin 7.5 mg/kg Day 0, 7, 14) is “negligible effects”. Further, the “interference on cisplatin's chemotherapeutic effect” value in data set [4] (pretreatment at 100 mg/kg, cisplatin 7.5 mg/Kg, SCID beige tumor-bearing mice) is “no interference”. In addition, the “SKNLP tumor cells metastases in lung and liver (histology)” value in data set [4] (same experiments as FIG. 7 and FIG. 8, vs control and cisplatin alone) was “delays SKNLP tumor cells metastases”.
